Results from US20230119539A1, “TRACELESS LINKERS AND PROTEIN-CONJUGATES THEREOF” (Regeneron Pharmaceuticals, Inc., priority 2019, published 2023).
Read-outs that look alike come from different tables or passages of the source.

Experiments:
[1] = Solubility of quenched linker-payloads; settings: Table 3c, linker-payloads quenched with taurine-PEG4-azide or CD-N3
[2] = Solubility of linker-payloads and quenched linker-payloads; assay type: physicochemical; settings: water; quenched linker-payloads, Table 6a; read-out: Solubility
From the text: The quenched linker-payloads were water soluble and used for the pH stability test.

[3] = pH stability of quenched linker-payloads in buffers (LCMS); assay type: physicochemical; settings: RT
Protocol: To a solution of compound (payloads or quenched-linker-payloads) in DMSO (0.2-1.0 mg/mL) was added corresponding PBS buffer (V(buffer)/V(DMSO)=5) to give test samples (pH 3, 4, 5, 6, 7.4, and 8.5, or other special pH). The test samples were incubated at RT for at least 3 days and monitored by LCMS (i.e., at 1 hr, 2 hr, 4 hr, 8 hr, and 1 day, 2 day, 3 day, 4 day, 5 day, 6 day, 7 day, 8 day, 9 day, and 21 day time points). Initial concentrations of the samples were 0.2 mg/mL (DMSO/buffer, v/v=1/5). […] The payloads and quenched linker-payloads were mostly stable at pH >5.0, 6.0, 7.4 and 8.5 after 3 days. In more acidic conditions, such as pH 1.0, the payloads or linker-payloads were easily cleaved to release D*-OH.

[4] = target: T1, human macrophage scavenger receptor 1 (MSR1) (human, UniProt P21757 1-451); experiment: cell-based or functional assay
T1 sequence (looked up): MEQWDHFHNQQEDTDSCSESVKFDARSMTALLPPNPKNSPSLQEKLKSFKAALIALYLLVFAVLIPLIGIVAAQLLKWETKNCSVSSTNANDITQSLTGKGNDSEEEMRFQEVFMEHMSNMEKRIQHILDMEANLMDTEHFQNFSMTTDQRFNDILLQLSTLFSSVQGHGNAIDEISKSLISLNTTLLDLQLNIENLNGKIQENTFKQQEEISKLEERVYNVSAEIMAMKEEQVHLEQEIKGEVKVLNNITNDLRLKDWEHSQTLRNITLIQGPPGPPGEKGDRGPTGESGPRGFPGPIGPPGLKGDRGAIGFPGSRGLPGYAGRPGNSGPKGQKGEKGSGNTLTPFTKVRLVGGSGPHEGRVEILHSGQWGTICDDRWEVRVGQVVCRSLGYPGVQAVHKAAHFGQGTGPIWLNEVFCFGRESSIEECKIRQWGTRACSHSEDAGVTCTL

GR = target: T2, GR (Homo sapiens, UniProt P04150); experiment: GR luciferase reporter assay in HEK293/GRLuc cells; assay type: cell-based
T2 construct: host or cells: HEK293 (HEK293/GRLuc; HEK293/GRLuc/MSR1 additionally transduced with human MSR1)
T2 sequence (P04150 524-758 limits assumed): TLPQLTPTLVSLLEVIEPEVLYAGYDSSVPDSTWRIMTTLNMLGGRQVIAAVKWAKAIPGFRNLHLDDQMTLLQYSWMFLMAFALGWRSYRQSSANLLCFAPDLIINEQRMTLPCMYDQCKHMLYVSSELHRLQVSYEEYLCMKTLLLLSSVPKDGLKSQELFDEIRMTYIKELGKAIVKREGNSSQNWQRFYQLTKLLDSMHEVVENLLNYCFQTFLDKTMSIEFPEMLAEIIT
Protocol: Activity of anti-MSR1 ncADCs were tested using an MSR1 ADC steroid responsive luciferase reporter assay. To generate the assay cell line, HEK293 cells were co-transfected with the pBind-GR (Promega, Cat #E158A) and pGL4.35 [Luc2P/9xGAL4UAS/Hygro] (Promega, Cat #E137A) vectors. The pBind-GR vector expresses a fusion protein consisting of the GR ligand binding and the yeast Gal4DNA-binding domain, which binds to the Gal4 upstream activation sequence (UAS) in the luciferase expression vector, that can induce luciferase expression following GR agonist binding. The cells were selected for at least 2 weeks in G418+hygromycin and the resulting cell line is referred to as HEK293/GRLuc. HEK293/GRLuc cells were then transduced with a human MSR1 lentiviral expression vector and 48 hours later cells were sorted for MSR1 positive cells. The resulting cell line is referred to as HEK293/GRLuc/MSR1.
Three-fold serial dilutions of ncADCs in assay buffer were added to the cells for 48 hours. The last well in the plate served as blank control containing only the assay media and was plotted as a continuation of the 3-fold serial dilution. Luciferase activity was determined using the One-Glo™ reagent (Promega, Cat #E6130). Relative light units (RLUs) were measured on an Envision luminometer (PerkinElmer) and EC50 values were determined using a four-parameter logistic equation over a 10-point dose response curve (GraphPad Prism). The signal to noise (S/N) was determined by taking the ratio of the highest RLU on the dose response curve to the RLU in the untreated wells.
To test the activity of GR agonist payloads disclosed herein, a cell-based GR responsive luciferase reporter assay was developed as described above.
Three-fold serial dilutions of free payloads were prepared in 100% DMSO, transferred to fresh assay media, and added to the cells for 48 hours. […] The last well in the plate served as blank control containing only the assay media and 0.2% DMSO (untreated well) and was plotted as a continuation of the 3-fold serial dilution. Luciferase activity was determined using the One-Glo™ reagent (Promega, Cat #E6130). Relative light units (RLUs) were measured on an Envision luminometer (PerkinElmer) and EC50 values were determined using a four-parameter logistic equation over a 10-point dose response curve (GraphPad Prism). The signal to noise (S/N) was determined by taking the ratio of the highest RLU on the dose response curve to the RLU in the untreated wells.

[5] = target: T1, human macrophage scavenger receptor 1 …; experiment: cell-based or functional assay; remark: listed apart in the source

CCCC1O[C@@H]2C[C@H]3[C@@H]4C[C@H](F)C5=CC(=O)C=C[C@]5(C)[C@@]4(F)[C@@H](O)C[C@]3(C)[C@]2(C(=O)COCNC(=O)CNC(=O)CNC(=O)OCc2ccc(NC(=O)[C@H](CCCNC(N)=O)NC(=O)[C@@H](NC(=O)CCOCCOCCOCCOCCNC(=O)CCC(=O)N3Cc4ccccc4-c4c(nnn4CCOCCOCCOCCOCCC(=O)NCCS(=O)(=O)O)-c4ccccc43)C(C)C)cc2)O1 (some centres unmarked) [Q1L1-PIII-4]
Solubility [1]: >1000 µg/mL

CC(C)[C@H](NC(=O)CCOCCOCCOCCOCCNC(=O)CCC(=O)N1Cc2ccccc2-c2c(nnn2CCOCCOCCOCCOCCC(=O)NCCS(=O)(=O)O)-c2ccccc21)C(=O)N[C@@H](CCCNC(N)=O)C(=O)Nc1ccc(COC(=O)NCC(=O)NCOCC(=O)[C@@]2(O)[C@H](C)C[C@H]3[C@@H]4CCC5=CC(=O)C=C[C@]5(C)[C@@]4(F)[C@@H](O)C[C@@]32C)cc1 [Q1L1-PI]
Solubility [2]: > 1000 µg/mL | percentage of the remaining compound ([3]; DMSO, 1 Day): 100% | percentage of the remaining compound ([3]; DMSO, 2 Day): 100% | percentage of the remaining compound ([3]; DMSO, 3 Day): 100% | percentage of the remaining compound ([3]; DMSO, 4 Day): 100% | percentage of the remaining compound ([3]; DMSO, 7 Day): 100% | percentage of the remaining compound ([3]; DMSO, 1 hr): 100% | percentage of the remaining compound ([3]; DMSO, 4 hr): 100% | percentage of the remaining compound ([3]; pH 3.0, 1 Day): 100% | percentage of the remaining compound ([3]; pH 3.0, 2 Day): 100% | percentage of the remaining compound ([3]; pH 3.0, 3 Day): 96% | percentage of the remaining compound ([3]; pH 3.0, 4 Day): 95% | percentage of the remaining compound ([3]; pH 3.0, 7 Day): 91% | percentage of the remaining compound ([3]; pH 3.0, 1 hr): 100% | percentage of the remaining compound ([3]; pH 3.0, 4 hr): 100% | percentage of the remaining compound ([3]; pH 4.0, 1 Day): 100% | percentage of the remaining compound ([3]; pH 4.0, 2 Day): 100% | percentage of the remaining compound ([3]; pH 4.0, 3 Day): 100% | percentage of the remaining compound ([3]; pH 4.0, 4 Day): 100% | percentage of the remaining compound ([3]; pH 4.0, 7 Day): 100% | percentage of the remaining compound ([3]; pH 4.0, 1 hr): 100% | percentage of the remaining compound ([3]; pH 4.0, 4 hr): 100% | percentage of the remaining compound ([3]; pH 5.0, 1 Day): 100% | percentage of the remaining compound ([3]; pH 5.0, 2 Day): 100% | percentage of the remaining compound ([3]; pH 5.0, 3 Day): 100% | percentage of the remaining compound ([3]; pH 5.0, 4 Day): 100% | percentage of the remaining compound ([3]; pH 5.0, 7 Day): 100% | percentage of the remaining compound ([3]; pH 5.0, 1 hr): 100% | percentage of the remaining compound ([3]; pH 5.0, 4 hr): 100% | percentage of the remaining compound ([3]; pH 7.4, 1 Day): 100% | percentage of the remaining compound ([3]; pH 7.4, 2 Day): 100% | percentage of the remaining compound ([3]; pH 7.4, 3 Day): 100% | percentage of the remaining compound ([3]; pH 7.4, 4 Day): 100% | percentage of the remaining compound ([3]; pH 7.4, 7 Day): 100% | percentage of the remaining compound ([3]; pH 7.4, 1 hr): 100% | percentage of the remaining compound ([3]; pH 7.4, 4 hr): 100%

B1: H1H21234N-N297Q-L1-PII-1 (antibody, V domains shown)
VH: QVQLQESGPGLVKPSETLSLTCTVTGGSISRNYWSWIRQPPGKGLEWIGYIYYSGSIDYNPSLKSRVTISVDTSKNQFSLKLSSMTAADTAVYYCARDRWNWKYGMDVWGQGTTVIVSS
VL: EIVLTQSPGTLSLSPGERATLSCRASQTVRNNYLAWYHQKPGQAPRLLIYGASSRATGIPDRFSGSGSGTDFTLTISRLEPEDFTVYYCHQYGNSPWTFGQGTKMEIKR
modifications: heavy-chain constant region (not part of this entry): N297Q (EU); linker-payload L1-PII-1 (DIBAC-suc-PEG4-vcPAB-PII-1, payload budesonide) clicked onto azido-PEG3-amine on glutamines; DAR 4
EC50, GR luciferase reporter activity in HEK293/GRLuc/MSR1 cells [4]: 0.84 nM | S/N, HEK293/GRLuc/MSR1 cells [4]: 222 | EC50 (GR; Table 8, ncADCs, 48 hours): > 100 nM | S/N (GR; Table 8, ncADCs, highest RLU / RLU of untreated wells): 5.4 | EC50 (GR; Table 11, ADCs): > 100 nM | S/N (GR; Table 11, ADCs): 4.5 | EC50, GR luciferase reporter activity in HEK293/GRLuc/MSR1 cells [5]: 0.609 nM | S/N (highest RLU / RLU in untreated wells), HEK293/GRLuc/MSR1 cells [5]: 128

B2: H1H21234N-N297Q-L13-PII-1 (antibody, V domains shown)
VH: B1 VH
VL: B1 VL
modifications: heavy-chain constant region (not part of this entry): N297Q (EU); linker-payload L13-PII-1 (COT-GGGG-NHCH2-Bud) conjugated as in Example 5; four DAR ADC
EC50, GR luciferase reporter activity in HEK293/GRLuc/MSR1 cells [4]: 2.33 nM | S/N, HEK293/GRLuc/MSR1 cells [4]: 226 | EC50 (GR; Table 11, ADCs): > 100 nM | S/N (GR; Table 11, ADCs): 3.1

B3: H1H21234N-N297Q-L8-PII-1 (antibody, V domains shown)
VH: B1 VH
VL: B1 VL
modifications: heavy-chain constant region (not part of this entry): N297Q (EU); linker-payload L8-PII-1 (COT-PEG4-EvcPAB-G-NHCH2-Bud) conjugated as in Example 5; four DAR ADC
EC50, GR luciferase reporter activity in HEK293/GRLuc/MSR1 cells [4]: 0.899 nM | S/N, HEK293/GRLuc/MSR1 cells [4]: 280 | EC50 (GR; Table 11, ADCs): > 100 nM | S/N (GR; Table 11, ADCs): 1.4
